Laboratory results from patent US20200299791A1, “Process for the Production of a Saccharide Product from an Aqueous Solution” (Avantium Knowledge Centre B.V., priority 2015, published 2020).

What was measured:
[1] = Partition of model by-product compounds between Carrier liquid 2 (poly-alpha-olefin) and organic solvent; type: physicochemical; settings: log {[compound]carrier liquid/[compound]organic solvent}, 2 mL solvent + 3 mL carrier liquid solution, shaken 60 min at room temperature
Procedure: (§1) Six compounds were dissolved in two different carrier liquids. The six compounds were exemplary for the by-products that may be obtained when wood is subjected to hydrolysis by the reaction of concentrated hydrochloric acid and that may be obtained when the hydrolyzate thus obtained in treated with the carrier liquid. The compounds were • a) betulin, a triterpene having a pentacyclic structure and two hydroxyl groups, • b) abietic acid, i.e. a diterpene compound derived from four isoprene units and a having one carboxylic acid group, • c) linoleic acid, a fatty aid having 18 carbon atoms and two unsaturated bonds, • d) 1-eicosanol, a linear alkanol having 20 carbon atoms, • e) sitosterol, a phytosterol with a chemical structure similar to cholesterol, and • f) limonene, a cyclic terpene having two unsaturated bonds.
Carrier liquid 2 is a poly-alpha-olefin having a kinematic viscosity of 1240 mm^2/s at 40° C. and a kinematic viscosity of 100 mm^2/s at 100° C. (ASTM D445). It has a flash point of 283° C. (ASTM D92). Carrier liquid 2 is immiscible with water.
(§2) In each experiment, 2 mL of an organic solvent was added to 3 mL of the carrier liquid solutions. The admixture obtained were shaken for 60 min at room temperature. The concentration of each compound in each of the carrier liquids was determined and the partition coefficient was calculated. By partition coefficient P is understood the ratio of concentrations of each of the compounds in an organic solvent and in a carrier liquid. The partition coefficient is expressed as
(§3) log P, being log {[compound]carrier liquid/[compound]organic solvent}.
(§4) The partition coefficients are shown in Table 2 for Carrier liquid 1 and in Table 3 for Carrier liquid 2.

[2] = Partition of model by-product compounds between Carrier liquid 1 (paraffin oil) and organic solvent; type: physicochemical; settings: log {[compound]carrier liquid/[compound]organic solvent}, 2 mL solvent + 3 mL carrier liquid solution, shaken 60 min at room temperature
Procedure: as §1
Carrier liquid 1 is a paraffin oil with a boiling range of 388 to 709° C. and a kinematic viscosity of 481 mm^2/s at 40° C. and a kinematic viscosity of about 31 at 100° C. (ASTM D445). Carrier liquid 1 is immiscible with water.
as §2, §3, §4

SMILES	Partition coefficient with Carrier liquid 2, Log P ([1]; Exp. No. 4, solvent methanol)	Partition coefficient with Carrier liquid 2, Log P ([1]; Exp. No. 5, solvent butanol)	Partition coefficient with Carrier liquid 2, Log P ([1]; Exp. No. 6, solvent acetone)	Partition coefficient with Carrier liquid 1, Log P ([2]; Exp. No. 1, solvent methanol)	Partition coefficient with Carrier liquid 1, Log P ([2]; Exp. No. 2, solvent butanol)	Partition coefficient with Carrier liquid 1, Log P ([2]; Exp. No. 3, solvent acetone)
C=C(C)[C@@H]1CC[C@]2(CO)CC[C@]3(C)[C@H](CC[C@@H]4[C@@]5(C)CC[C@H](O)C(C)(C)[C@@H]5CC[C@]43C)[C@@H]12 [betulin]	−0.36	−1.09	−1.03	–	–	–
CC[C@H](CC[C@@H](C)[C@H]1CC[C@H]2[C@@H]3CC=C4C[C@@H](O)CC[C@]4(C)[C@H]3CC[C@]12C)C(C)C [sitosterol]	−0.05	−0.63	−0.10	0.35	−0.45	0.16
